The test system of one data set is Molt-4 cells. Description: Cell Viability Assay (CellTiter-Glo) in Molt-4 cells (counter screen). In kind it is cell-based. Particulars: 24 hours, 10% Human Serum. The method, then: (§1) The acute lymphoblastic leukemia (ALL) human cell line RS4;11 (ATCC, Manassas VA) was used as the primary human cell line to assess the cellular activity of compound of the present Examples in vitro and their efficacy in vivo. […] The acute lymphoblastic leukemia cell line Molt-4, which is derived from immature T-lymphoid cells (T-ALL), was used as a counter screen assay.
(§2) 3000 Cells (0.1×10^6/mL) were seeded in each well of 384-well plate and were treated for 24 hours in a humidified chamber with 5% CO2. Cell viability was determined by CellTiter-Glo as described by the manufacturer's instructions (Promega Corporation, Madison, WI, USA).
On the technique in general: In ATP-based viability assays light output follows the ATP content of the culture.

Data set [1] in a line: Bioavailability study: pharmacokinetics after single intravenous or oral dose in mouse. In kind it is in vivo, CD-1 mice (male). As to the method:
Studies were conducted to evaluate the pharmacokinetic profiles of Example 25 herein and Example 2 in WO 2019/040550 after single intravenous or oral dose in mouse. CD-1 mice (male) were obtained from Charles River Laboratories (Wilmington, MA).
The pharmacokinetics of Example 25 herein and Example 2 in WO 2019/040550 were evaluated following single 1 mg/kg intravenous or oral doses in mouse. Example 25 herein and Example 2 in WO 2019/040550 were prepared as a solution in DMSO:Tween 80:PEG-400:Dextrose 5% in Water (5:5:20:70, v/v) for the IV and oral dose mouse studies. The intravenous dose was administered as a slow bolus to the penile vein under isoflurane anesthesia. The oral doses were administrated by gavage. Serial blood samples were obtained […], 0.25, 0.5, 1.0, 4, 6, 9, 12, 24, 32 and 48 hours post dosing and […]. Plasma was separated by centrifugation and stored frozen (<−15° C.) until analysis.
HPLC-MS/MS bioanalytical methods were utilized for the quantitation of Example 25 herein and Example 2 in WO 2019/040550 concentration in plasma. The analytical methods used protein precipitation to extract compound from plasma. All samples were combined with a minimum two volume equivalents of organic solvent containing internal standard, vortexed and then centrifuged to pellet the proteins. Supernatants were used for subsequent analysis by liquid chromatography-tandem mass spectrometry (LC-MS/MS). Studies involving quantitative analysis employed spiked standards in plasma that were processed simultaneously with the samples.
Analytes were separated using reverse phase chromatography on a C8 or C18 column prior to analysis on an API5500m (or higher) mass spectrometer with a Turbo-Ion Spray source. Peak areas were determined using Sciex Analyst™ 1.6 (or higher) software or Sound Analytics DiscoveryQuant™ 2.0 (or higher) software. Actual concentrations (when required) were calculated by regression analysis of the peak area ratio (parent/internal standard) of the spiked standards versus concentrations.
Peak plasma concentrations (Cmax) and the time to peak plasma concentration (Tmax) were determined directly from the plasma concentration data for each animal. The compound plasma concentration data were submitted to multi-exponential curve fitting using WinNonlin software. The area under the plasma concentration-time curve from 0 to t hours after dosing (AUC0-t, t=time of the last measurable plasma concentration) was calculated using the linear trapezoidal rule. The residual area extrapolated to infinity, determined as the final measured plasma concentration (Ct) divided by the terminal plasma elimination rate constant (β), was added to the AUC0-t to produce the total area under the curve (AUC0-∞). The apparent total plasma clearance (CLp) was calculated by dividing the administered dose by the AUC0-∞. Half-life (t1/2) was determined with the following calculation: t1/2=ln (2)/elimination rate constant. The initial volume of distribution (Vc) was calculated as the dose divided by the extrapolated concentration at time=0 (C0). The volume of distribution at steady state, Vss, was estimated as a product of the total plasma clearance (CLp) and the mean residence time (MRT); the terminal-phase volume of distribution, Vβ, was derived from the total plasma clearance value (CLp) divided by the terminal plasma elimination rate constant ((3). Oral bioavailability (F) was calculated as the dose-normalized AUC0-∞ (AUC0-∞/D) from the oral dose divided by the corresponding dose normalized AUC0-∞ from intravenous dosing.

Another data set relates to RS4;11 cells. Nature of the data set: Cell Viability Assay (CellTiter-Glo) in RS4;11 cell line. In kind it is cell-based. The note with it: 24 hours, 10% Human Serum. As to the method:
as §1, §2

By pEC50 is commonly meant −log10 of the EC50, conventionally taken in molar units. What is called AUC is the area under the concentration-time curve, a measure of exposure. High values mean high exposure, low ones low exposure. For orientation: MRT means a mean duration of stay, worked out from the concentration-time curve. For orientation: Tmax means the time at which the peak concentration occurs.

pEC50: −log10 of the molar value. Where “and” joins values, the source holds several entries; their conditions need not be identical. Equal entries are not always repeated.

In the case of `C[C@H]1CCC(CNc2ccc(S(=O)(=O)NC(=O)c3ccc(N4CCN5CC6=C(c7ccc(Cl)cc7)CC(C)(C)C[C@H]6OCCCOC[C@@H]5C4)cc3N3CCCOc4nc5[nH]ccc5cc43)cc2[N+](=O)[O-])OC1` (stereo partly drawn) [Example 23, 4-((4aS,10aR)-14-(4-chlorophenyl)-12,12-dimethyl-1,2,4a,5,8,9,10a,11,13,15-decahydro-7H,12H-benzo[f]pyrazino[2,1-c][1,8]dioxa[4]azacycloundecin-3(4H)-yl)-2-(3,4-dihydro-2H-pyrrolo[3′,2′:5,6]pyrido[2,3-b][1,4]oxazepin-1(7H)-yl)-N-((4-((((2R,5S)-5-methyltetrahydro-2H-pyran-2-yl)methyl)amino)-3-nitrophenyl)sulfonyl)benzamide], the pEC50 in the data set on Molt-4 cells is < 5.00.
As to `CO[C@@H]1CC[C@@H](CNc2ccc(S(=O)(=O)NC(=O)c3ccc(N4CCN5CC6=C(c7ccc(Cl)cc7)CC(C)(C)C[C@H]6OCCCOC[C@@H]5C4)cc3N3CCCOc4nc5[nH]ccc5cc43)cc2[N+](=O)[O-])OC1` [Example 25, 4-((4aS,10aR)-14-(4-chlorophenyl)-12,12-dimethyl-1,2,4a,5,8,9,10a,11,13,15-decahydro-7H,12H-benzo[f]pyrazino[2,1-c][1,8]dioxa[4]azacycloundecin-3(4H)-yl)-2-(3,4-dihydro-2H-pyrrolo[3′,2′:5,6]pyrido[2,3-b][1,4]oxazepin-1(7H)-yl)-N-((4-((((2S,5R)-5-methoxytetrahydro-2H-pyran-2-yl)methyl)amino)-3-nitrophenyl)sulfonyl)benzamide], in data set [1] (IV 1 mg/kg, individual mouse), the exposure (AUC) was 11200 ng·h/mL and 12900 ng·h/mL; the CLp stood at 0.077 L/h/kg; the mean residence time (MRT) turned out to be 10 h; the Vβ is 1.0 L/kg and 0.90 L/kg. Also, in data set [1] (PO 1 mg/kg, individual mouse), the area under the curve (AUC) was 4330 ng·h/mL and 4490 ng·h/mL; the Tmax amounted to 4.0 h; the t1/2 is 8.7 h and 10 h. Also, the time of peak concentration (Tmax) in data set [1] (PO 1 mg/kg, mean) was 4.0 h.
In the case of `COC1(CNc2ccc(S(=O)(=O)NC(=O)c3ccc(N4CCN5CC6=C(c7ccc(Cl)cc7)CC(C)(C)C[C@H]6OCCCOC[C@@H]5C4)cc3N3CCCOc4nc5[nH]ccc5cc43)cc2[N+](=O)[O-])CCOCC1` [Example 26, 4-((4aS,10aR)-14-(4-chlorophenyl)-12,12-dimethyl-1,2,4a,5,8,9,10a,11,13,15-decahydro-7H,12H-benzo[f]pyrazino[2,1-c][1,8]dioxa[4]azacycloundecin-3(4H)-yl)-2-(3,4-dihydro-2H-pyrrolo[3′,2′:5,6]pyrido[2,3-b][1,4]oxazepin-1(7H)-yl)-N-((4-(((4-methoxytetrahydro-2H-pyran-4-yl)methyl)amino)-3-nitrophenyl)sulfonyl)benzamide], the pEC50 with Molt-4 cells is < 5.00.
For `CC1(C)CC(c2ccc(Cl)cc2)=C2CN3CCN(c4ccc(C(=O)NS(=O)(=O)c5ccc(NC[C@@H]6CC[C@@H](O)CO6)c([N+](=O)[O-])c5)c(N5CCCOc6nc7[nH]ccc7cc65)c4)C[C@H]3COCCCO[C@@H]2C1` [Example 27, 4-((4aS,10aR)-14-(4-chlorophenyl)-12,12-dimethyl-1,2,4a,5,8,9,10a,11,13,15-decahydro-7H,12H-benzo[f]pyrazino[2,1-c][1,8]dioxa[4]azacycloundecin-3(4H)-yl)-2-(3,4-dihydro-2H-pyrrolo[3′,2′:5,6]pyrido[2,3-b][1,4]oxazepin-1(7H)-yl)-N-((4-((((2S,5R)-5-hydroxytetrahydro-2H-pyran-2-yl)methyl)amino)-3-nitrophenyl)sulfonyl)benzamide], the pEC50 in the data set with RS4;11 cells was 9.48; in the data set on Molt-4 cells, 6.27.

Source of the values: patent US20260028356A1, “1,3,4,7-TETRAHYDRO-2H-PYRROLO[3',2':5,6]PYRIDO[2,3-B][1,4]OXAZEPINE BCL-2 INHIBITORS” (AbbVie Inc., priority 2022, published 2026).
